From US12364682B2, “Use of tegaserod in preparation of anti-tumor drug” (Qingdao Haiji Biomedicine Co., Ltd., priority 2019, dated 2025)
Where a name gives a salt, the structure may show the parent alone. Blank lines part the entries; values can stand above or below the molecule they belong to.

Tests used:
STAT3 = assay: STAT3-dependent luciferase reporter gene test; format: cell-based; conditions: Homo sapiens; SKA cells (A549 with STAT3-luciferase reporter gene), 24 h; read-out: IC50 of inhibitory effect on STAT3 (luciferase reporter)
Protocol: HeLa and SKA cells (A549 cells constructed with the STAT3-luciferase reporter gene) were cultivated in a DMEM medium, and DU145, A549, DLD1, H460, and MC38 were cultivated in an RPMI 1640 medium. For routine cultivation, 10% fetal bovine serum (FBS), 100 IU/ml penicillin, and […] streptomycin were added to a medium. All cells were cultivated at 37° C. and 5% CO2.
SKA cells were inoculated into a white 96-well plate at a density of 1×10^4/well, and cultivated overnight at 37° C. and 5% CO2. A drug to be tested was added at a concentration to be tested to act on the cells for 24 h. The luciferase activity was determined on a SpectraMax®L microplate reader using a luciferase kit (purchased from Promega®).

STAT3 Tyr705 [1] = assay: Western blotting of constitutive STAT3 activation in DU145 cells; format: cell-based, human; conditions: constitutively activated STAT3, 2 h
Protocol: (§1) The cells were harvested and lysed with an RIPA buffer, a resulting lysate was subjected to sodium dodecyl sulfate-polyacrylamide gel electrophoresis (SDS-PAGE), and a resulting protein was transferred to a nitrocellulose (NC) membrane (purchased from GE Healthcare®). A primary antibody was added to bind the protein to be tested on the membrane, then a horseradish peroxidase (HRP)-conjugated secondary antibody (purchased from Absin) was added for incubation, and finally a formed immunocomplex was detected with an Immobilon™ Western chemiluminescent HRP substrate (Millipore®) and photographed with a Tanon® 5200 imaging system.
(§2) Different concentrations of Tegaserod were added to normally-cultured cells to act on the cells for 2 h, a cell protein lysate was collected for western blotting assay, and an activation status of STAT3 was observed through a phosphorylation status at an STAT3 Tyr705 site.

STAT3 Tyr705 [2] = assay: Western blotting of constitutive STAT3 activation in A549 cells; format: cell-based; conditions: constitutively activated STAT3, 2 h
Protocol: as §1, §2

STAT3 (Y705) = assay: Western blotting of IL-6-induced STAT3 activation in HeLa cells; format: cell-based; conditions: 2 h drug, then 5 ng/ml IL-6 for 10 min
Protocol: as §1
IL-6 was the main cytokine to activate STAT3 signaling. Hela cells were first treated with different concentrations of Tegaserod for 2 h, then stimulated with 5 ng/ml IL-6 for 10 min before harvested. Total protein was extracted, and the phosphorylation of STAT3 (Y705) was detected through western blotting.

JAK1 Tyr1022/1023 = biological target: T1, JAK1 Tyr1022/1023 (Homo sapiens, UniProt P23458); assay: Western blotting of JAK1 phosphorylation in DU145 cells; format: cell-based
T1 construct: endogenous in cells; host or cells: DU145
Protocol: as §1
(§3) STAT3 is usually JAK-kinase-phosphorylated and activated by the autophosphorylated JAK kinase upstream thereof.

JAK2 Tyr1007/1008 = biological target: T2, JAK2 Tyr1007/1008 (Homo sapiens, UniProt O60674); assay: Western blotting of JAK2 phosphorylation in DU145 cells; format: cell-based; conditions: 7.5 μM, 2 h
T2 construct: endogenous in cells; host or cells: DU145
Protocol: as §1, §3

TYK2 Tyr1054/1055 = biological target: T3, TYK2 Tyr1054/1055 (Homo sapiens, UniProt P29597); assay: Western blotting of TYK2 phosphorylation in DU145 cells; format: cell-based; conditions: high concentration 15 μM, 2 h
T3 construct: endogenous in cells; host or cells: DU145
Protocol: as §1, §3

[3] = test system: prostate cancer DU145 cells; assay: Cell viability assay, DU145; format: cell-based; conditions: Homo sapiens, DU-145, 72 h, read-out: growth inhibition IC50
Protocol: (§4) Cells were inoculated into a 96-well plate at a density of 3,000 cells/well. After the cells were cultivated for 18 h, different concentrations of a drug to be tested were added to act on the cells. 72 h after the drug to be tested was added, 10 μl of resazurin (1 mg/ml) was added to each well, the plate was further incubated for 3 h, and then a fluorescence value at 595 nm (excitation wavelength at 544 nm) was determined on a SpectraMax®i3 multifunctional microplate reader (purchased from Molecular Device®)
(§5) After cells were treated with Tegaserod for 72 h, the cell viability was determined to reflect the inhibitory effect of the drug on cell growth.

lung cancer H460 cells = assay: Cell viability assay, H460; format: cell-based; conditions: Homo sapiens, NCI-H460, 72 h, read-out: growth inhibition IC50
Protocol: as §4, §5

lung cancer A549 cells = assay: Cell viability assay, A549; format: cell-based; conditions: Homo sapiens, 72 h, read-out: growth inhibition IC50
Protocol: as §4, §5

DLD1 colon cancer cells = assay: Cell viability assay, DLD1; format: cell-based; conditions: Homo sapiens, DLD-1, 72 h, read-out: growth inhibition IC50
Protocol: as §4, §5

[4] = test system: NSCLC A549 transplanted tumors; assay: A549 transplanted tumor nude mouse model; format: in vivo, nude mice
Protocol: (§6) Female NRMI nu/nu athymic nude mice (SPF grade, 6 weeks old, with a weight of 17 g to 20 g) were purchased from GemPharmatech®, and raised in a constant-temperature and constant-humidity environment according to standard requirements, where a 12 h light-dark cycle was adopted. The animal experiment was approved by the Laboratory Animal Committee of Ocean University of China and complied with the “Guide for Care and Use of Laboratory Animals” published by the National Institutes of Health (NIH Publication No. 85-23, revised in 1996).
(§7) Nude mice were subcutaneously injected with an A549 cell suspension (female mice) or a DU145 matrigel cell suspension (male mice). After palpable solid tumors were formed, constructed model mice were randomly divided into groups, each with 7 to 10 mice. Administration treatment was conducted according to the experimental grouping. Throughout the experiment, a body weight was measured regularly. A tumor volume was calculated as follows: tumor volume=0.5×length×width×width.

[5] = test system: prostate cancer DU145 transplanted tumors; assay: DU145 transplanted tumor nude mouse model; format: in vivo, nude mice
Protocol: as §6, §7

[6] = test system: CRC MC38 transplanted tumors; assay: CRC MC38 syngeneic tumor model; format: in vivo; conditions: immune-sound mice
Excerpt: (§8) Some parts in nude mice had acquired immune cell deficiency and an imperfect immune system, and thus the anti-tumor effect and immunomodulatory effect of Tegaserod were further tested in immune-sound mice.

[7] = Body weight and toxicity observation in tumor-bearing mice; format: in vivo
Protocol: as §7

[8] = test system: immune cells in peripheral blood; assay: Blood cell analysis of peripheral blood; format: in vivo; conditions: tumor-bearing mice, after administration
Protocol: After the tumor-bearing mice were sacrificed by CO2, blood was collected from the heart and placed into an EDTA anticoagulation tube, and the blood cell component test was conducted using an IDEXX ProCyte Dx automatic blood cell analyzer.
In order to verify this hypothesis, the composition change of immune cells in peripheral blood after the administration of Tegaserod was first detected.

[9] = test system: immune cells in DU145 transplanted tumors; assay: FCM analysis of immune cells in DU145 transplanted tumors; format: in vivo; conditions: DU145 transplanted tumors in nude mice
Protocol: (§9) At the end of the experiment, the mice were sacrificed by C02, a proper amount of tumor tissue was collected and placed in a dissociation tube with a mouse tumor dissociation reagent (MC38 transplanted tumor) or human tumor dissociation reagent (DU145 transplanted tumor), and a tissue dissociator (Miltenyi) was used for dissociation. Separated single cells were subjected to RBC lysis and dead cell staining, obtained cells were incubated with a blocking solution at 4° C., a corresponding antibody was added, and analysis was conducted on a FACSAriaIII cell sorter.
Furthermore, the composition and proportion of immune cells in DU145 transplanted tumors in nude mice were tested through FCM.

[10] = test system: mouse stromal cells of DU145 transplanted tumors; assay: Transcriptome sequencing of DU145 transplanted tumors; format: in vivo, nude mice; conditions: mouse-derived cells in DU145 transplanted tumors, mRNA sequencing
Protocol: An appropriate amount of tumor tissue was collected and quick-frozen with liquid nitrogen, and eukaryotic mRNA sequencing was conducted by Majorbio. Based on the Illumina® Novaseq 6000™ sequencing platform, all mRNAs transcribed from specific eukaryotic tissues or cells in a specified period were sequenced. In the sequencing experiment, the Illumina Truseq™ RNA sample prep kit method was used to build a library. Raw data were used for quality control, sequence alignment, transcript assembly, function annotation, and expression analysis.
In order to further explore the immunomodulatory effect of Tegaserod in an anti-tumor process, the transcriptome sequencing technology was used to conduct mRNA sequencing for DU145 transplanted tumors in nude mice, and sequencing results were aligned to the mouse reference genome to obtain the overall mRNA expression of mouse-derived cells in DU145 transplanted tumors in nude mice.

[11] = test system: immune cells in MC38 transplanted tumors; assay: FCM analysis of immune cells in MC38 tumors; format: in vivo, mice
Protocol: as §9, §8

phosphorylated STAT3 = assay: Immunohistochemistry of phosphorylated STAT3 in DU145 transplanted tumors; format: in vivo, nude mice; conditions: oral administration
Protocol: (§10) Paraffin sections were deparaffinized with xylene, washed with ethanol of various grades, subjected to antigen retrieval, blocked with a blocking solution in a 37° C. incubator, then treated with a primary antibody and a secondary antibody, stained with a DAB staining solution, treated with hematoxylin, a differentiation solution, an ammonia solution, ethanol of various grades, and xylene, and sealed with a neutral resin.
In addition, the human prostate cancer cell line DU145 with constitutive STAT3 activation was selected, and the effect of Tegaserod on the growth of transplanted tumors of the human prostate cancer cell line in nude mice was also tested.

[12] = test system: cell proliferation marker Ki67; assay: Immunohistochemistry of Ki67 in DU145 transplanted tumors; format: in vivo, nude mice; conditions: oral 1.25 mg/kg once every two days
Protocol: as §10

T1 sequence (P23458 whole entry): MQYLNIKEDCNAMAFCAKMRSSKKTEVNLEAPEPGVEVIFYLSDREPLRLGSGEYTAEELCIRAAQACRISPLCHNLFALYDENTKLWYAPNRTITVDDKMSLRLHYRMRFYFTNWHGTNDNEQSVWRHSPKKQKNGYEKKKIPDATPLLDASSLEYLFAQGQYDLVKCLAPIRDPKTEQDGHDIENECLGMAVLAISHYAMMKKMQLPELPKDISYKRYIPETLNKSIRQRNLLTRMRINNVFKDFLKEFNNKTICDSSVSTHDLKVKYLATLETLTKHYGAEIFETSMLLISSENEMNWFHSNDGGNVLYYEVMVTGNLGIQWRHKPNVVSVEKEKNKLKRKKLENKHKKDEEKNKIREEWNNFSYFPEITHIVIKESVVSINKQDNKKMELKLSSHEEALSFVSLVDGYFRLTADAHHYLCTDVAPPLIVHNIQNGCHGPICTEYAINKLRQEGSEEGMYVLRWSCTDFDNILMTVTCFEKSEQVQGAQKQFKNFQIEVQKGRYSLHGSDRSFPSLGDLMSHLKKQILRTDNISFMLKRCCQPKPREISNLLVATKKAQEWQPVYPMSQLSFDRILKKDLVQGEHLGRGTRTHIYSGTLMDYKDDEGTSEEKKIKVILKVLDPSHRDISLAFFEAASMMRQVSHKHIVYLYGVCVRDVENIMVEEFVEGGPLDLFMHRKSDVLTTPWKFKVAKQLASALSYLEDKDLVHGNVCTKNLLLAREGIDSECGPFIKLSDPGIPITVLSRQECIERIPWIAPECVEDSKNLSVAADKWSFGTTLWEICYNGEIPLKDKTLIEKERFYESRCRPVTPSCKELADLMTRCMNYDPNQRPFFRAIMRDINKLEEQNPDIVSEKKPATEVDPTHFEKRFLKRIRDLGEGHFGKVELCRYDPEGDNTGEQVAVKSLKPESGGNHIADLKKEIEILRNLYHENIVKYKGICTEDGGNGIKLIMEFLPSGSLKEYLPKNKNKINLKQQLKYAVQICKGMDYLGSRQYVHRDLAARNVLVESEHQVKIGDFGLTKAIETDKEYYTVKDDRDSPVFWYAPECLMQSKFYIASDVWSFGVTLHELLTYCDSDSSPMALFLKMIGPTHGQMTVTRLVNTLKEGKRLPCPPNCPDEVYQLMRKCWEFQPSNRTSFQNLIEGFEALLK
T3 sequence (P29597 whole entry): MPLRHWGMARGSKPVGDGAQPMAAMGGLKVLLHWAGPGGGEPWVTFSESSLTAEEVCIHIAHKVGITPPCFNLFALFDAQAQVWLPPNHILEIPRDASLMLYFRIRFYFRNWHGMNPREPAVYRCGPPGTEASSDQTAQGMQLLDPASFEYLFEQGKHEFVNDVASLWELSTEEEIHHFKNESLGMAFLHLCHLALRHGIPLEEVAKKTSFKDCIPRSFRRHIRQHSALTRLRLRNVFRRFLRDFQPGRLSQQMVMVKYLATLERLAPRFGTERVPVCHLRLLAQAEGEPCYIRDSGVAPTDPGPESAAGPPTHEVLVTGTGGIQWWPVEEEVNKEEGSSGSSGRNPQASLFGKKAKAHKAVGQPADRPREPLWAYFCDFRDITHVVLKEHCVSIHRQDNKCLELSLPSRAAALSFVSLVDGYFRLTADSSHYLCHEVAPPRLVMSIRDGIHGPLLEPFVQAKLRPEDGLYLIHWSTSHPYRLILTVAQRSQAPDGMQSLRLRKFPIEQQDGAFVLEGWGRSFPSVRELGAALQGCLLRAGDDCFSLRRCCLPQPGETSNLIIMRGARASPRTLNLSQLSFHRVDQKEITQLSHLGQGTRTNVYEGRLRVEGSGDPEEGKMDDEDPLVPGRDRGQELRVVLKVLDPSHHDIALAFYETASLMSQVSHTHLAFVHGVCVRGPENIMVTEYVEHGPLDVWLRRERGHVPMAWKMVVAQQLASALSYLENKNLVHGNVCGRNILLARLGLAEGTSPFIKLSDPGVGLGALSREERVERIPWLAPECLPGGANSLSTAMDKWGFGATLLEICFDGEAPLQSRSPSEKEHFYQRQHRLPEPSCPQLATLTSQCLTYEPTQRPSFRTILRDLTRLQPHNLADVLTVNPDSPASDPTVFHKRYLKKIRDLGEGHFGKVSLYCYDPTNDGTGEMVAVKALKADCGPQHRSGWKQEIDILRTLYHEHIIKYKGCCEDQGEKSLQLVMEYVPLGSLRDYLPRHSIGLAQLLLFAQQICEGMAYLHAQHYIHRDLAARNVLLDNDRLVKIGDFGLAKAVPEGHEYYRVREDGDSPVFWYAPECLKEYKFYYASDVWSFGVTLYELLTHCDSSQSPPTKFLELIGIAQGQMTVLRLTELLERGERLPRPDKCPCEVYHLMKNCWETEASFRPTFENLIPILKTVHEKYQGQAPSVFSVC
T2 sequence (O60674 whole entry): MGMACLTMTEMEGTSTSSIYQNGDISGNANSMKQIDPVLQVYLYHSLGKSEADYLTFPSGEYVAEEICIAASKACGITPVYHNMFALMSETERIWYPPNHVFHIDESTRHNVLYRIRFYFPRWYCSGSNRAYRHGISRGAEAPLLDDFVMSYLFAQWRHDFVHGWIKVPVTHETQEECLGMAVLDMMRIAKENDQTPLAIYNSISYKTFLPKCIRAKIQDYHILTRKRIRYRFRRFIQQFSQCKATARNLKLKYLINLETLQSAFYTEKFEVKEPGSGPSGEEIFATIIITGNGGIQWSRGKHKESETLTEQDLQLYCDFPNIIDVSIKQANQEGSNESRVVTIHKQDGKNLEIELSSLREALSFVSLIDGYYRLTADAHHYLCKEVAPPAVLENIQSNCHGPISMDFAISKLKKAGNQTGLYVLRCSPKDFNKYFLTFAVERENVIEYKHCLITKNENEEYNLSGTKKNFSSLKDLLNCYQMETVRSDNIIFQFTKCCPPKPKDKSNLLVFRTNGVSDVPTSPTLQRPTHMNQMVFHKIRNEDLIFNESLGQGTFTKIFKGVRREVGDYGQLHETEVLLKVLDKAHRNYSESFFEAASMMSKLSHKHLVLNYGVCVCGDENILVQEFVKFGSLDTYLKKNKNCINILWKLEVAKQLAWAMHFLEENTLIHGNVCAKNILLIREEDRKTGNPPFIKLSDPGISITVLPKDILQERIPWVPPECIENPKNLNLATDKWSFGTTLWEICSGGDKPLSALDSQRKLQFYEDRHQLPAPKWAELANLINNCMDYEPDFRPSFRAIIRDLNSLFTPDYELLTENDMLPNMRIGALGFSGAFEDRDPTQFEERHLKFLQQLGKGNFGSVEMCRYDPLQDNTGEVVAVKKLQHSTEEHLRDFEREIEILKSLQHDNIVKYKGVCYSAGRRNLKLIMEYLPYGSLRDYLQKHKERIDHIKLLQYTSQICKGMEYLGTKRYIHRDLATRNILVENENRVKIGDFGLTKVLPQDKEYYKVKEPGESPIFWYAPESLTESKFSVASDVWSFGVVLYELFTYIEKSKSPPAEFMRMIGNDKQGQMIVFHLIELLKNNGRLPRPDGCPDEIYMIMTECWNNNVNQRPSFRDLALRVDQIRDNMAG

IC50 (STAT3): 5.06 µM
SMILES: [H]/N=C(/NCCCCC)N/N=C/c1c[nH]c2ccc(OC)cc12 [Tegaserod maleate]

SMILES: CCCCCNC(=N)N/N=C/c1c[nH]c2ccc(OC)cc12 [Tegaserod, 2-[(5-methoxy-1H-indol-3-yl)methylene]-N-pentylcarbazide]
inhibition of STAT3 activation (Tyr705 phosphorylation) (STAT3 Tyr705 [1]): could inhibit the activation of STAT3 in a dosage-dependent manner
inhibition of STAT3 activation (Tyr705 phosphorylation) (STAT3 Tyr705 [2]): could inhibit the activation of STAT3 in a dosage-dependent manner
inhibition of IL-6-induced STAT3 activation (Y705 phosphorylation) (STAT3 (Y705)): inhibited the activation of STAT3 induced by IL-6 in a dosage-dependent manner
inhibition of phosphorylation at JAK1 Tyr1022/1023 (JAK1 Tyr1022/1023; 7.5 μM, 2 h): could inhibit the phosphorylation
selectivity within the JAK kinase family (JAK1 Tyr1022/1023; JAK1 and JAK2 versus TYK2): higher affinity to JAK1 and JAK2 than to TYK2
inhibition of phosphorylation at JAK2 Tyr1007/1008 (JAK2 Tyr1007/1008): could inhibit the phosphorylation
inhibition of phosphorylation at TYK2 Tyr1054/1055 (TYK2 Tyr1054/1055): could also inhibit the phosphorylation
IC50 [3]: 2.5 µM
IC50 (lung cancer H460 cells): 3.1 µM
IC50 (lung cancer A549 cells): 5.7 µM
IC50 (DLD1 colon cancer cells): 8.7 µM
anti-tumor effect relative to gefitinib ([4]; 5 mg/kg i.p. versus 100 mg/kg gefitinib p.o., A549 nude mice): comparable to that of 100 mg/kg gefitinib (p.o.)
growth of A549 transplanted tumors ([4]; 5 mg/kg i.p., nude mice, versus control group): could effectively inhibit the growth of A549 tumor cells
dependence of tumor inhibition rate on dosage ([4]; A549 transplanted tumor nude mouse model): no dependence on a Tegaserod dosage
growth of A549 transplanted tumors (tumor weight and tumor volume) ([4]; oral administration, nude mice): could inhibit the growth of A549 transplanted tumors in nude mice
tumor inhibition ability at reduced administration frequency ([5]; DU145 nude mice, oral, once every two days): exhibited a stronger tumor inhibition ability
dependence of tumor inhibition rate on dosage ([5]; DU145 transplanted tumor nude mouse model): no dependence on a Tegaserod dosage
growth of DU145 transplanted tumors ([5]; oral administration, nude mice): could effectively inhibit the growth of DU145 transplanted tumors in nude mice
growth of CRC MC38 transplanted tumors [6]: could effectively inhibit the growth of CRC MC38 transplanted tumors
organ damage after anatomy ([7]; A549 nude mouse model, i.p. administration, experimental endpoint): no obvious organ damage was observed
body weight ([7]; A549 nude mouse model, i.p. administration, throughout the experiment): did not change significantly
body weight ([7]; A549 nude mouse model, oral administration): did not lose weight
drug toxicity (body weight) ([7]; DU145 nude mouse model, low-dosage, low-frequency oral administration): no obvious drug toxicity
drug toxicity ([7]; DU145 nude mouse model, oral administration): without obvious drug toxicity
drug toxicity ([7]; MC38 model, immune-sound mice): without obvious drug toxicity
total WBC count, neutrophils, lymphocytes, and platelets in the peripheral blood [8]: could stimulate the increase
proportion of immune cells (CD45+; CD11b+Ly6G+, CD11b+Ly6C+, CD335+) in tumors [9]: could increase the proportion of immune cells (CD45+) in tumors
genes of cytokine-cytokine receptor interaction and antigen processing and presentation (KEGG analysis) [10]: significantly up-regulated
infiltration of immune cells (CD45+) inside tumors [11]: promoted the infiltration of immune cells (CD45+) inside tumors
phosphorylation level of STAT3 in tumors (immunohistochemistry) (phosphorylated STAT3): could effectively inhibit the phosphorylation level of STAT3
tumor proliferation ability (Ki67 immunohistochemistry) [12]: decreased proliferation ability

SMILES: COc1cc2ncnc(Nc3ccc(F)c(Cl)c3)c2cc1OCCCN1CCOCC1 [gefitinib]
total WBC count, neutrophils, lymphocytes, and platelets in the peripheral blood [8]: stimulate the increase
proportion of immune cells (CD45+; CD11b+Ly6G+, CD11b+Ly6C+, CD335+) in tumors [9]: also exhibited a similar immunomodulatory effect
